For one assay, the system named is P. falciparum K1 strain. In words: Resistance assessment, K1 strain. Conditions: Plasmodium falciparum. The format is cell-based.
Another assay concerns P. falciparum 3D7 strain. The assay is described as follows: Chemical rescue assay with isopentenyl pyrophosphate (IPP). The format is cell-based, Plasmodium falciparum. Conditions: for IC50: Plasmodium falciparum, 3D7 strain, 72 h. An excerpt:
To evaluate whether brussonol interfered with the biosynthesis of […] in malaria parasites, we conducted a chemical rescue assay. The assay identifies compounds that interfere with the metabolism of isoprenoids by “rescuing” their growth inhibition through the supplementation of isopentenyl pyrophosphate (IPP), a key precursor of isoprenoid biosynthesis. […] Thus, the chemical rescue assay compares the IC50 values of the tested compound in the presence and absence of IPP. We used fosmidomycin (FOS) as a positive control for growth inhibition rescuing upon supplementation of IPP (Figure 7b). In this assay, compounds that interfere in the metabolism of isoprenoids show a significant increment in the IC50 value in the presence of IPP (Figure 7b).
The chemical rescue assay was carried out as described by Yeh and DeRisi (2011). This assay consists in verifying the IC50 value of the tested compounds with and without the isopentenyl pyrophosphate (IPP), purchased from Isoprenoids, LC (Florida, USA). Briefly, 3D7 strain ring stages were cultured in 96-well plates, with 0.5% parasitemia and 2% hematocrit. Non-parasitized erythrocytes and parasitized erythrocytes without drugs were used as growth controls, and fosmidomycin (FOS) was used as a positive control for chemical rescue. Serial dilutions of brussonol and FOS were prepared in duplicates. In the same 96-well plate, brussonol and FOS had their antiplasmodial activity evaluated with and without supplementation of 200 µM IPP. Plates were incubated for 72 h and analyzed by the SYBR Green I assay.

The subject of a further assay is P. knowlesi. The assay is described as follows: In vitro evaluation against P. knowlesi, NanoLuc luminescence. The format is cell-based. Conditions: Plasmodium knowlesi, 40 h. How it is done: The P. falciparum strains were cultivated in human blood cells (hRBC) O^+, while P. knowlesi was cultivated in rhesus red blood cells (rRBC) as described. P. falciparum complete RPMI (consisting of RPMI-1640, supplemented with 0.2% NaHCO3, 25 mM HEPES (pH 7.4), 11 mM D-glucose, 10 mg/L hypoxanthine, 25 mg/L gentamicin, and 0.5% (m/v) AlbuMAX II). The parasitemias of these cultures were maintained below 10% with 2.5% hematocrit. P. knowlesi complete RPMI (consisting of RPMI-1640 supplemented with 25 mM HEPES, […] hypoxanthine, 0.26% NaHCO3, 10 mg/L gentamicin, and 1% Albumax II). This culture was maintained with RBCs up to 5% hematocrit. The culture medium was changed daily, and all cultures were maintained under a 90% N2/5% CO2/5% O2 gas mixture at 37 °C. All compounds were purchased from Sigma-Aldrich (Cotia, Brazil).
Blood-stage P. knowlesi cultures were diluted to 0.5% parasitemia and brought to 2% hematocrit for growth in 96-well plates containing the desired drug concentration series (200 µL of culture/well). […] Parasite growth in the plates was measured by luminescence (NanoLuc method). […] The plates were then incubated for 3 min at room temperature and the luminescence was assessed using a plate luminometer (Molecular Devices, San Jose, CA, USA) with 1 s integration time. Luminescence readings were normalized to values from control wells containing no drug. […]

In another assay the test system is P. falciparum. The assay is described as follows: Speed-of-action assay. In kind it is cell-based, Plasmodium falciparum. How it is done:
The speed-of-action assay assesses the inhibitory activity of the tested compounds after 24, 48, and 72 h of drug exposure. […] Moreover, to confirm the speed-of-action, the morphological development of the parasite in parallel with the IC50 assessment was verified. The parasites in the negative control wells developed according to the expected timeline (Figure 5a). […] Brussonol caused parasite death within the first 24 h of incubation as observed for artesunate (Figure 5a).
In this method, three 96-well plates were prepared by adding 180 µL of the parasite’s inoculum with 0.5% parasitemia and 2% hematocrit. A serial dilution of the compounds was added to each plate; the starting concentration for brussonol was 6× IC50, while for artesunate and pyrimethamine (fast- and slow-acting controls, respectively) were 10× IC50. In addition, a positive and negative control, which corresponded to parasite cultures with no addition of inhibitor and non-parasitized erythrocytes, respectively, were used for the parasite’s control growth. Each plate was treated for a different period (24, 48, or 72 h), and the first two plates were washed twice with fresh medium to remove the inhibitor, followed by incubation of 48 and 24 h, respectively. […] A statistical analysis using a one-way ANOVA test was done to compare each time point using GraphPad Prism version 8.0.1 for Windows, GraphPad Software, San Diego, California USA, www.graphpad.com, accessed on 1 February 2022. In parallel, the morphological development of the parasite under the compounds’ pressure was assessed by adding the compounds tested at the highest concentration evaluated. Blood smears of each well were made and stained at time points 0, 24, 48, and 72 h.

Where two headings read alike, the source gives them in different places.

The results in this text go back to paper PMC9321043, “Synthesis, Structure–Activity Relationships, and Parasitological Profiling of Brussonol Derivatives as New Plasmodium falciparum Inhibitors” (Pharmaceuticals, 2022).

What is called IC50 is the concentration at which inhibition is half-maximal.

Consider `CC(C)c1cc2c(c(O)c1O)C[C@@]13CCCC(C)(C)[C@@H]1C[C@@H]2O3` [Compound 1, brussonol], for which the IC50 was 6.6 ± 0.1 µM in the assay with P. falciparum K1 strain; 13.9 ± 0.2 µM in the assay with P. falciparum 3D7 strain (with 200 µM IPP, read-out: IC50 in the presence of IPP); 18 ± 1 µM in the assay on P. falciparum 3D7 strain (without IPP, read-out: IC50 in the absence of IPP); 20 ± 4 µM in the assay with P. knowlesi. Besides, the “reversal of growth inhibition by IPP supplementation” value in the assay on P. falciparum 3D7 strain (200 µM IPP) is “did not reverse the growth inhibition”. The speed of action entry in the assay on P. falciparum (IC50 compared after 24, 48 and 72 h of drug exposure) was “fast-acting in vitro inhibition”. For the same molecule, in the assay on P. falciparum (highest concentration evaluated, Giemsa smears at 0, 24, 48, 72 h), the “time of parasite death (morphological development, pyknotic nuclei)” value is recorded as ≤ 24 h.
